# Target: T1, Human complement C1s enzyme (Homo sapiens, UniProt P09871)
# T1 sequence (P09871 438-688 limits assumed): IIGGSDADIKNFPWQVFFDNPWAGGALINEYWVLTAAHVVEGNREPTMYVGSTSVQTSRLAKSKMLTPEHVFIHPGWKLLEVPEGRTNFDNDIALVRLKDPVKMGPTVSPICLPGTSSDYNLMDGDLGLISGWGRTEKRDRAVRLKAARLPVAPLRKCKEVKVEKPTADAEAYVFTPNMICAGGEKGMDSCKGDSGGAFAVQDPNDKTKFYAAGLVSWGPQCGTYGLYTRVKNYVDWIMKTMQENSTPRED
# T1 sequence (P09871 16-437 partner limits assumed): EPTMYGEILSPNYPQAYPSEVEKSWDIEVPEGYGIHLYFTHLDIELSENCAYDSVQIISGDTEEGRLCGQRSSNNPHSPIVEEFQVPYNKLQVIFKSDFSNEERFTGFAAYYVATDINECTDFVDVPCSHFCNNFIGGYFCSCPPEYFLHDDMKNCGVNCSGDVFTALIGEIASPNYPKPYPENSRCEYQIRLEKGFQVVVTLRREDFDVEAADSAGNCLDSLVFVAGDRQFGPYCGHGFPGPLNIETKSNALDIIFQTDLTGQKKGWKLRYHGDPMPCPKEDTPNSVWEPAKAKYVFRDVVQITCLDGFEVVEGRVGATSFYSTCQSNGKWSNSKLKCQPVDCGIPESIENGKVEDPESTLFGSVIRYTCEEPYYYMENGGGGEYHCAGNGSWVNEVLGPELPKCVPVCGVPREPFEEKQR
# Test: Human C1s enzyme assay
# Assay type: biochemical
# Conditions: human complement C1s enzyme 1.16 nM, substrate Z-L-Lys-SBzl 100 μM, 5 min preincubation; read-out: IC50 (Stars), C1s Inhibiting Activity
# Outline: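 Serum-purified human C1s (1.16 nM final) preincubated 5 min at room temperature with compound in 50 mM Tris, 1 M NaCl, pH 7.5. Z-L-Lys-SBzl and DTNB added at 100 μM each; A405 followed every 30 s for 30 min, and IC50 obtained by nonlinear regression of reaction rates.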
row,Compound,IC50 [µM]
1,"C[C@@H](NC(=O)[C@@H]1C[C@](F)(CF)CN1C(=O)CNC(=O)c1ccc(-c2ccc(F)cc2F)cc1)c1cc2cnccc2[nH]1 [Compound 162, (2S,4R)-N-((R)-1-(1H-pyrrolo[3,2-c]pyridin-2-yl)ethyl)-1-((2′,4′-difluoro-[1,1′-biphenyl]-4-carbonyl)glycyl)-4-fluoro-4-(fluoromethyl)pyrrolidine-2-carboxamide]",0.1 to 1
2,"C[C@@H](NC(=O)[C@@H]1C[C@H](C2OCCCO2)CN1C(=O)CNC(=O)c1ccc2c(c1)Oc1ccccc1S2)c1cc2cnccc2[nH]1 [Compound 146, (2S,4S)-N-((R)-1-(1H-pyrrolo[3,2-c]pyridin-2-yl)ethyl)-4-(1,3-dioxan-2-yl)-1-((phenoxathiine-3-carbonyl)glycyl)pyrrolidine-2-carboxamide]",< 0.1
3,"C[C@@]12C[C@@H]1N(C(=O)CNC(=O)c1ccc(Oc3ccccc3)cn1)[C@H](C(=O)NCc1cc3cnccc3[nH]1)C2 [Compound 136, (1S,3S,5S)-N-((1H-pyrrolo[3,2-c]pyridin-2-yl)methyl)-5-methyl-2-((5-phenoxypicolinoyl)glycyl)-2-azabicyclo[3.1.0]hexane-3-carboxamide]",0.1 to 1
4,"O=C(NCC(=O)N1C[C@H](OC(F)F)C[C@H]1C(=O)NCc1cc2cnccc2s1)c1cccc(Oc2ccccc2)c1 [Compound 235, (2S,4R)-4-(difluoromethoxy)-1-((3-phenoxybenzoyl)glycyl)-N-(thieno[3,2-c]pyridin-2-ylmethyl)pyrrolidine-2-carboxamide]",< 0.1
5,"Cc1ccc(Oc2cccc(C(=O)NCC(=O)N3C[C@H](OC(F)F)C[C@H]3C(=O)N[C@H](C)c3cc4cnccc4[nH]3)c2)c(F)c1 [Compound 312, (2S,4R)-N-((R)-1-(1H-pyrrolo[3,2-c]pyridin-2-yl)ethyl)-4-(difluoromethoxy)-1-((3-(2-fluoro-4-methylphenoxy)benzoyl)glycyl) pyrrolidine-2-carboxamide]",< 0.1
6,"Cn1c(C2(NC(=O)[C@@H]3C[C@]4(C)C[C@@H]4N3C(=O)CNC(=O)CCCOc3ccccc3)CC2)nc2ccncc21 [Compound 65, (1S,3S,5S)-5-methyl-N-(1-(3-methyl-3H-imidazo[4,5-c]pyridin-2-yl)cyclopropyl)-2-((4-phenoxybutanoyl)glycyl)-2-azabicyclo[3.1.0]hexane-3-carboxamide]",> 1
7,"O=C(NCC(=O)N1CC=C[C@H]1C(=O)NCc1cc2cnccc2[nH]1)c1ccc2c(c1)Oc1ccccc1S2 [Compound 261, (S)-N-((1H-pyrrolo[3,2-c]pyridin-2-yl)methyl)-1-((phenoxathiine-3-carbonyl)glycyl)-2,5-dihydro-1H-pyrrole-2-carboxamide]",< 0.1
8,"Cc1ccc(Oc2cccc(C(=O)NCC(=O)N3C[C@H](OC(F)F)C[C@H]3C(=O)NCc3c(C)cc(N)nc3C)c2F)cc1 [Compound 374, (2S,4R)-N-((6-amino-2,4-dimethylpyridin-3-yl)methyl)-4-(difluoromethoxy)-1-((2-fluoro-3-(p-tolyloxy)benzoyl)glycyl) pyrrolidine-2-carboxamide]",> 1
9,"C[C@@H](NC(=O)[C@@H]1C[C@@H](OC(F)F)CN1C(=O)CN1Cc2cc(-c3ccc(F)cc3)ccc2C1=O)c1cc2cnccc2[nH]1 [Compound 101, (2S,4R)-N-((R)-1-(1H-pyrrolo[3,2-c]pyridin-2-yl)ethyl)-4-(difluoromethoxy)-1-(2-(5-(4-fluorophenyl)-1-oxoisoindolin-2-yl)acetyl)pyrrolidine-2-carboxamide]",< 0.1
10,"C[C@H](NC(=O)[C@@H]1C[C@]2(C)C[C@@H]2N1C(=O)CNC(=O)CCCOc1ccccc1)c1cc2cnccc2[nH]1 [Compound 57, (1S,3S,5S)-N-((S)-1-(1H-pyrrolo[3,2-c]pyridin-2-yl)ethyl)-5-methyl-2-((4-phenoxybutanoyl)glycyl)-2-azabicyclo[3.1.0]hexane-3-carboxamide]",> 1
11,"O=C(NCC(=O)N1CC2(C[C@H]1C(=O)NCc1cc3cncnc3[nH]1)OCCO2)c1ccc2c(c1)-c1ccccc1C2(F)F [Compound 16, (S)-N-((7H-pyrrolo[2,3-d]pyrimidin-6-yl)methyl)-7-((9,9-difluoro-9H-fluorene-3-carbonyl)glycyl)-1,4-dioxa-7-azaspiro[4.4]nonane-8-carboxamide]",> 1
12,"C[C@@]12C[C@@H]1N(C(=O)CNC(=O)c1ccc3c(c1)Oc1ccccc1S3)[C@H](C(=O)NCc1cc3c(s1)CNCC3)C2 [Compound 112, (1S,3S,5S)-5-methyl-2-((phenoxathiine-3-carbonyl)glycyl)-N-((4,5,6,7-tetrahydrothieno[2,3-c]pyridin-2-yl)methyl)-2-azabicyclo[3.1.0]hexane-3-carboxamide]",< 0.1
13,"C[C@@H](NC(=O)[C@@H]1C[C@@H](C(F)(F)F)CN1C(=O)CNC(=O)c1ccc2c(c1)Oc1ccccc1S2)c1cc2cnccc2[nH]1 [Compound 176, (2S,4R)-N-((R)-1-(1H-pyrrolo[3,2-c]pyridin-2-yl)ethyl)-1-((phenoxathiine-3-carbonyl)glycyl)-4-(trifluoromethyl)pyrrolidine-2-carboxamide]",< 0.1
14,"O=C(NCC(=O)N1CC2(C[C@H]1C(=O)NCc1cc3cnccc3[nH]1)OCCO2)c1ccc2oc3ccccc3c2c1 [Compound 35, (S)-N-((1H-pyrrolo[3,2-c]pyridin-2-yl)methyl)-7-((dibenzo[b,d]furan-2-carbonyl)glycyl)-1,4-dioxa-7-azaspiro[4.4]nonane-8-carboxamide]",< 0.1
15,"Cc1cc(CN)cc(C2(NC(=O)[C@@H]3C[C@]4(C)C[C@@H]4N3C(=O)CNC(=O)CCCOc3ccccc3)CC2)c1 [Compound 64, (1S,3S,5S)-N-(1-(3-(aminomethyl)-5-methylphenyl)cyclopropyl)-5-methyl-2-((4-phenoxybutanoyl)glycyl)-2-azabicyclo[3.1.0]hexane-3-carboxamide]",> 1
16,"O=C(NCC(=O)N1C[C@@](F)(CF)C[C@H]1C(=O)NCc1cc2cnccc2[nH]1)c1ccc2c(c1)Oc1ccccc1S2 [Compound 26, (2S,4R)-N-((1H-pyrrolo[3,2-c]pyridin-2-yl)methyl)-4-fluoro-4-(fluoromethyl)-1-((phenoxathiine-3-carbonyl)glycyl)pyrrolidine-2-carboxamide]",< 0.1
17,"Cc1ccc(-c2cnc(C(=O)NCC(=O)N3CC4(C[C@H]3C(=O)NCc3cc5cnccc5[nH]3)OCCO4)c(F)c2)cc1 [Compound 108, (S)-N-((1H-pyrrolo[3,2-c]pyridin-2-yl)methyl)-7-((3-fluoro-5-(p-tolyl)picolinoyl)glycyl)-1,4-dioxa-7-azaspiro[4.4]nonane-8-carboxamide]",0.1 to 1
18,"O=C(NCC(=O)N1C[C@H](OC(F)F)C[C@H]1C(=O)NCc1ccc2ncsc2c1)c1ccc2c(c1)Oc1ccccc1S2 [Compound 245, (2S,4R)-N-(benzo[d]thiazol-6-ylmethyl)-4-(difluoromethoxy)-1-((phenoxathiine-3-carbonyl)glycyl)pyrrolidine-2-carboxamide]",> 1
19,"O=C(NCc1cc2cnccc2[nH]1)[C@@H]1CC2(CN1C(=O)CN1Cc3cc(-c4ccc(F)cc4)ccc3C1=O)OCCO2 [Compound 121, (S)-N-((1H-pyrrolo[3,2-c]pyridin-2-yl)methyl)-7-(2-(5-(4-fluorophenyl)-1-oxoisoindolin-2-yl)acetyl)-1,4-dioxa-7-azaspiro[4.4]nonane-8-carboxamide]",0.1 to 1

# From US20260062443A1 (ALEXION PHARMACEUTICALS, INC., priority 2022, published 2026)
